The nature of series [1]: Observation of precipitation in the IV fluid during administration to patient. Format: physicochemical. As for the experimental part:
In this example, a patient diagnosed with chronic lymphocytic leukemia (CLL) and having chronic kidney disease (GFR<30 ml/min/1.73 m^2) is begun on a treatment protocol with bendamustine. In particular, the patient is administered 360 mg of bendamustine as part of an approximately 114.4 ml infusion on days 1 and 2 of a 28 day cycle. The intravenous formulation is prepared by drawing up 14.4 ml of an RTU (ready to use) liquid containing bendamustine HCl 25 mg/ml, PG 103.2 mg/ml, PEG 1013.4 mg/ml, monothioglycerol 5 mg/ml and 0.08 mg/ml NaOH and mixing it into a 100 ml bag containing 0.9% NaCl. The final bendamustine concentration for the IV fluid is 3.15 mg/ml. The infusion is administered to the patient in less than 15 minutes.
The process of Example 1 is repeated except that the IV infusion volume is approximately 64.4 ml. The same 14.4 ml of an RTU (ready to use) liquid containing bendamustine HCl 25 mg/ml, PG 103.2 mg/ml, PEG 1013.4 mg/ml, monothioglycerol 5 mg/ml and 0.08 mg/ml NaOH is used and it is mixed into a 50 ml bag containing 0.9% NaCl. The final bendamustine concentration for the IV fluid is 5.59 mg/ml. The infusion is administered to the patient in less than 10 minutes.

The nature of series [2]: Measured solubility of bendamustine HCl in the diluent/solubilizer combination at room temperature. The format is physicochemical. To be noted: aqueous with cosolvent or surfactant or cyclodextrin. As for the experimental part: The solubility of the diluent/solubilizer combination far exceeded the bendamustine concentration, thus assuring the avoidance of precipitated drug prior to or during administration. As will be appreciated by those of ordinary skill, as the concentration of solubilizers increases with respect to the total volume in small administration doses, the solubility of the bendamustine is maintained.
Bendamustine formulations containing the above ingredients are capable of delivering approximately 360 mg of the drug as the HCl salt in volumes of pharmaceutically acceptable diluent ranging from about 120 ml down to about 15 ml.

Counter-ions that a name gives are not always drawn.

As usually defined, the solubility is the dissolved amount per volume that the medium holds. Consider `Cn1c(CCCC(=O)O)nc2cc(N(CCCl)CCCl)ccc21` [bendamustine HCl, Bendamustine HCl], for which the “precipitation of bendamustine in the IV fluid during administration” value was “No precipitated bendamustine is observed” in series [1] (14.4 ml RTU liquid (25 mg/ml) in 50 ml 0.9% NaCl, final 5.59 mg/ml, infusion in less than 10 minutes) and “No precipitated bendamustine is observed” in series [1] (14.4 ml RTU liquid (25 mg/ml) in 100 ml 0.9% NaCl, final 3.15 mg/ml, infusion in less than 15 minutes). Also, the solubility in series [2] (half normal saline/dextrose diluent/solubilizer combination, 50 ml half normal saline/dextrose + 1 ml of 25 mg/ml bendamustine HCl and solubilizers (PG, PEG 400)) was found to be 14.2 mg/mL; in series [2] (normal saline diluent/solubilizer combination, 50 ml normal saline + 1 ml of 25 mg/ml bendamustine HCl and solubilizers (PG, PEG 400)), 10.5 mg/mL.

For the origin of these results see patent publication US9579384B2, “Method of treating bendamustine-responsive conditions in patients requiring reduced volumes for administration” (Eagle Pharmaceuticals, Inc., priority 2012, dated 2017).
